# Measurements taken from paper PMC8849072, “Sudapyridine (WX-081), a Novel Compound against Mycobacterium tuberculosis” (Microbiology Spectrum, 2022).
# pIC50: −log10 of the molar value.
# Assays:
# [1] = 14-day repeated oral dose toxicity and toxicokinetic head-to-head study in beagle dogs; format: in vivo, beagle dog
# [2] = tested on: M. tuberculosis susceptible strain 14242; experiment: MBC determination (CFU-based); conditions: 7 days incubation, 3 log10 CFU decrease
# [3] = target: T1, human ether-á-go-go-related (hERG) ion channel (Homo sapiens, UniProt Q12809); experiment: hERG manual patch-clamp assay in hERG-CHO cell; format: cell-based; conditions: parent compound
# T1 construct: expressed in transfected cells; host or cells: hERG-CHO cell (CHO cells expressing hERG)
# Procedure: A human ether-á-go-go-related (hERG) ion channel in vitro assay was performed in Shanghai Institute of Materia Medica, Shanghai, for the evaluation of cardiac liability testing. The assay was a manual patch-clamp method using electrophysiology in an hERG-CHO cell.
# [4] = Preliminary in vivo toxicity study in mice
# Procedure: Before the in vivo activity test, a preliminary in vivo toxicity study was conducted. All mice tolerated WX-081 at the administered doses. No adverse events were found.
# [5] = tested on: M. tuberculosis susceptible strain 14280; experiment: MIC by microplate alamarBlue assay (MABA); format: cell-based, Mycobacterium tuberculosis; conditions: Mycobacterium tuberculosis
# [6] = tested on: M. tuberculosis susceptible strain 14241; experiment: MIC by microplate alamarBlue assay (MABA); format: cell-based, Mycobacterium tuberculosis; conditions: Mycobacterium tuberculosis
# M. tuberculosis H37Rv [7] = experiment: MBC determination (CFU-based); conditions: 7 days incubation, 3 log10 CFU decrease
# [8] = tested on: M. tuberculosis H37Rv and two clinical isolates (14619, 14242); experiment: Time-kill curve analysis; format: cell-based, Mycobacterium tuberculosis; conditions: up to 14 days culture
# [9] = tested on: M. tuberculosis susceptible strain 14480; experiment: MIC by microplate alamarBlue assay (MABA); format: cell-based, Mycobacterium tuberculosis; conditions: Mycobacterium tuberculosis
# M. tuberculosis H37Rv [10] = format: in vivo, BALB/c mice; conditions: acute model
# [11] = Pharmacokinetic study in beagle dogs; format: in vivo; conditions: dog; for AUC(0-inf): AUC0-inf; for half-life: plasma
# Procedure: (§1) The BALB/c mice, rats, and beagle dogs were used in the PK study and fasted overnight before dosing. Animal doses were administered in two ways. One is oral administration, configured to form a 6.25 mg/kg WX-081, with 0.5% carboxymethylcellulose (CMC), the other is the WX-081 with an intravenous injection of 1.0 mg/kg (formulated in 40% hydroxypropyl-β-cyclodextrin and 50 mM citrate buffer at pH 3). Plasma samples were collected from three animals at each time point. Plasma concentrations were determined by liquid chromatography-tandem mass spectrometry (LC-MS/MS). The bioanalytical method by LC-MS/MS for pharmacokinetic (PK) studies in animal and toxicokinetic (TK) in tox studies have been validated. The total area under the concentration-time curve (AUC0-inf), the elimination half-time (t1/2), the peak concentration (Cmax), and the time to reach peak concentration (Tmax) of samples were determined directly from the experimental data using WinNonlin V6.2.1.
# M. tuberculosis H37Rv [12] = experiment: MIC by microplate alamarBlue assay (MABA); format: cell-based, Mycobacterium tuberculosis; conditions: Mycobacterium tuberculosis, H37RV
# M. tuberculosis H37Rv [13] = format: in vivo, BALB/c mice
# [14] = tested on: M. tuberculosis susceptible strain 14242; experiment: MIC by microplate alamarBlue assay (MABA); format: cell-based, Mycobacterium tuberculosis; conditions: Mycobacterium tuberculosis
# [15] = tested on: M. tuberculosis susceptible strain 14286; experiment: MIC by microplate alamarBlue assay (MABA); format: cell-based, Mycobacterium tuberculosis; conditions: Mycobacterium tuberculosis
# [16] = Pharmacokinetic study in rats; format: in vivo, rat; conditions: for At 96 h lung/plasma: lung / At 96 h lung/plasma: plasma / half-life: Rat; for At 96 h lung/plasma: lung: lung exposure at 96 h (first number of the pair); for At 96 h lung/plasma: plasma: plasma exposure at 96 h (second number of the pair); for half-life: plasma
# Procedure: as §1, with “One is oral administration, configured to form a 6.25 mg/kg WX-081, with 0.5% carboxymethylcellulose (CMC), the other is the WX-081 with an intravenous injection of 1.0 mg/kg (formulated in 40% hydroxypropyl-β-cyclodextrin and 50 mM citrate buffer at pH 3).” left out
# [17] = Pharmacokinetic study in mice; format: in vivo, BALB/c mice; conditions: for half-life: plasma; for half-life / At 96 h lung/plasma: lung / At 96 h lung/plasma: plasma: Mice; for At 96 h lung/plasma: lung: lung exposure at 96 h (first number of the pair); for At 96 h lung/plasma: plasma: plasma exposure at 96 h (second number of the pair)
# Procedure: as §1, with “One is oral administration, configured to form a 6.25 mg/kg WX-081, with 0.5% carboxymethylcellulose (CMC), the other is the WX-081 with an intravenous injection of 1.0 mg/kg (formulated in 40% hydroxypropyl-β-cyclodextrin and 50 mM citrate buffer at pH 3).” left out
# [18] = beagle dogs, 200 mg/kg oral, 14 days
# [19] = BALB/c, mouse, in vivo, iv, 1 mg/kg
# [20] = BALB/c, mouse, in vivo, po, 6.25 mg/kg
# T1 sequence (Q12809 whole entry): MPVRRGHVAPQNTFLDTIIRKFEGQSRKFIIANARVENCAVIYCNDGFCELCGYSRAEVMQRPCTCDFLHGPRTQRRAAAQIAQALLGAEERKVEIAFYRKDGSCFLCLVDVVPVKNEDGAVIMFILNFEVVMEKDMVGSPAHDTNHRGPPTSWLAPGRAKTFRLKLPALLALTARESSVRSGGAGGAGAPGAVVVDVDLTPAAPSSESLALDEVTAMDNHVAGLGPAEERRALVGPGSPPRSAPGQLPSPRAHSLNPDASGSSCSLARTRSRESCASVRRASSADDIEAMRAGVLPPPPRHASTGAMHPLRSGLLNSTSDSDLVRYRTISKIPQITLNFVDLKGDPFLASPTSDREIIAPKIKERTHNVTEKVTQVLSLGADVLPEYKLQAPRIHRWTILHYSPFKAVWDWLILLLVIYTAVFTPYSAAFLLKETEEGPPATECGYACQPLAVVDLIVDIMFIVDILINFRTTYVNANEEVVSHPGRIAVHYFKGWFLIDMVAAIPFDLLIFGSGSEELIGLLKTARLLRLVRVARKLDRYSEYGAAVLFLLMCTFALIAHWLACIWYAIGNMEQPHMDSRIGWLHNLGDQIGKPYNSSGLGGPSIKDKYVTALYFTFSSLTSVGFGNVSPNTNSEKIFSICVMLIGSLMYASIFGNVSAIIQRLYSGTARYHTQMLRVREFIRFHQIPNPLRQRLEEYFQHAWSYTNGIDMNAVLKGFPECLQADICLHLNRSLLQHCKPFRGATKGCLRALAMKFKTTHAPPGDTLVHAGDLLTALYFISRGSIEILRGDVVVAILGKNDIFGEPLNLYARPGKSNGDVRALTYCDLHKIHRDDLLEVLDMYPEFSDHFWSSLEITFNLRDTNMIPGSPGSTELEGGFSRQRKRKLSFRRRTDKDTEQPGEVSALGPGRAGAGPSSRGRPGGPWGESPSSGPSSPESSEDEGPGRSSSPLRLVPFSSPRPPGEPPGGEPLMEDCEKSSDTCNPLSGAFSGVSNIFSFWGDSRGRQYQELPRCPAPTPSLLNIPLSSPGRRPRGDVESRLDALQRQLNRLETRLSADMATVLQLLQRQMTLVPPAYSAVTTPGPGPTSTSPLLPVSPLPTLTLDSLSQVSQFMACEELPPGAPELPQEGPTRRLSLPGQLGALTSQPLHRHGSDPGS
structure (smiles),measurement,setting,value
"COc1ncc(-c2ccc(Cl)cc2)cc1[C@@H](c1ccccc1)[C@@](O)(CCN(C)C)c1cccc2ccccc12 [WX-081, sudapyridine]",mortality and moribundity,"[1]; 200 mg/kg oral once daily, 14 days, male and female dogs",did not result in mortality and moribundity
same,ECG: HR,[1]; [18],Slowing of the heart rate
same,ECG: QT interval,[1]; [18],Physiologically appropriate lengthening of the QT interval
same,ECG: RR/PR interval,[1]; [18],Lengthening of the RR interval
same,qualitative ECG changes associated with oral administration,[1]; [18],no qualitative ECG changes
same,"effects on blood pressure, heart rate, or qualitative ECG parameters","[1]; dog, in vivo",no adverse effects
same,cTnI,"[1]; dog, in vivo, po, 200 mg/kg",no significant changes
same,MBCs,[2],0.313 µg/mL
same,pIC50,[3],< 4.52
same,LD50,"[4]; mouse, in vivo, read-out: LD50 (dose that caused at least 50% of mice to die)",> 3000 mg/kg
same,tolerability at the administered doses,[4]; no adverse events were found,tolerated
same,MIC,[5],0.124 µg/mL
same,MIC,[6],0.117 µg/mL
same,MBCs,M. tuberculosis H37Rv [7],2.500 µg/mL
same,concentration showing bactericidal effects in time-kill test,[8],≥ 4 × MIC
same,MIC,[9],0.12 µg/mL
same,reduction in CFU compared with BDQ at 10 mg/kg,"M. tuberculosis H37Rv [10]; 10 mg/kg, P < 0.05",larger reduction in CFU than BDQ
same,activity compared with BDQ at the equivalent dose,M. tuberculosis H37Rv [10]; 20 mg/kg,no difference from that of BDQ
same,culturable organisms in mouse lungs,"M. tuberculosis H37Rv [10]; daily 20 mg/kg monotherapy, 20 days",all culturable organisms’ clearance
same,AUC(0-t),"[11]; in vivo, iv, 0.5 mg/kg",3610 ng·h/mL
same,Vd,"[11]; in vivo, iv, 0.5 mg/kg",6.04 L/kg
same,clearance,"[11]; in vivo, iv, 0.5 mg/kg",2.04 mL/min/kg
same,AUC(0-inf),"[11]; in vivo, iv, 0.5 mg/kg",4250 ng·h/mL
same,AUC(0-t),"[11]; in vivo, po, 2 mg/kg",8500 ng·h/mL
same,bioavailability,"[11]; in vivo, po, 2 mg/kg",58.9%
same,AUC(0-inf),"[11]; in vivo, po, 2 mg/kg",9490 ng·h/mL
same,Cmax,"[11]; in vivo, po, 2 mg/kg",390 ng/mL
same,Tmax,"[11]; in vivo, po, 2 mg/kg, Tmax",4.67 h
same,AUC(0-t),"[11]; in vivo, po, 6 mg/kg",20200 ng·h/mL
same,bioavailability,"[11]; in vivo, po, 6 mg/kg",46.6%
same,AUC(0-inf),"[11]; in vivo, po, 6 mg/kg",22800 ng·h/mL
same,Cmax,"[11]; in vivo, po, 6 mg/kg",1080 ng/mL
same,Tmax,"[11]; in vivo, po, 6 mg/kg, Tmax",5.33 h
same,AUC(0-t),"[11]; in vivo, po, 20 mg/kg",50400 ng·h/mL
same,bioavailability,"[11]; in vivo, po, 20 mg/kg",34.9%
same,Tmax,"[11]; in vivo, po, 20 mg/kg, Tmax",7.67 h
same,Tmax,"[11]; in vivo, po, 20 mg/kg, time to peak concentration (Tmax)",4.6 to 7.7 h
same,half-life,"[11]; iv, 0.5 mg/kg, Dog, Iv. 0.5 mg/kg, read-out: t1/2 (converted)",56.2 h
same,half-life,"[11]; po, 2 mg/kg, Dog, Po. 2.0 mg/kg, read-out: t1/2 (converted)",51.1 h
same,half-life,"[11]; po, 6 mg/kg, Dog, Po. 6.0 mg/kg, read-out: t1/2 (converted)",55.6 h
same,half-life,"[11]; po, 20 mg/kg, Dog, Po. 20.0 mg/kg, read-out: t1/2 (converted)",57.6 h
same,half-life,"[11]; po, 20 mg/kg, beagle dogs, oral, range over doses of 2, 6, or 20 mg/kg, read-out: plasma half-life (t1/2)",51 to 58 h
same,MIC,M. tuberculosis H37Rv [12],0.07 µg/mL
same,reduction of CFU in the lungs compared with 15 mg/kg RFP,"M. tuberculosis H37Rv [13]; chronic model, 5 mg/kg, 8-week treatment",superior
same,activity compared with BDQ,"M. tuberculosis H37Rv [13]; chronic model, 5, 10, and 20 mg/kg orally, 8 weeks","slightly lower than BDQ, there was no significant difference in activity"
same,lung CFU after 8 weeks of treatment,"M. tuberculosis H37Rv [13]; chronic model, any dose (5, 10, 20 mg/kg)",declined
same,MIC,[14],0.219 µg/mL
same,MIC,[15],0.152 µg/mL
same,At 96 h lung/plasma: lung,[16]; Iv. 1.0 mg/kg,235
same,At 96 h lung/plasma: plasma,[16]; Iv. 1.0 mg/kg,3.61
same,At 96 h lung/plasma: lung,[16]; Po. 5.0 mg/kg,337
same,At 96 h lung/plasma: plasma,[16]; Po. 5.0 mg/kg,4.74
same,half-life,[16]; Iv. 1.0 mg/kg,25.6 h
same,half-life,[16]; Po. 5.0 mg/kg,29.8 h
same,AUC(0-inf),"[16]; rat, in vivo, iv, 1 mg/kg",2350 ng·h/mL
same,AUC(0-t),"[16]; rat, in vivo, iv, 1 mg/kg",2220 ng·h/mL
same,Vd,"[16]; rat, in vivo, iv, 1 mg/kg",9.2 L/kg
same,clearance,"[16]; rat, in vivo, iv, 1 mg/kg",8.25 mL/min/kg
same,AUC(0-inf),"[16]; rat, in vivo, po, 5 mg/kg",4310 ng·h/mL
same,AUC(0-t),"[16]; rat, in vivo, po, 5 mg/kg",4080 ng·h/mL
same,Cmax,"[16]; rat, in vivo, po, 5 mg/kg",328 ng/mL
same,Tmax,"[16]; rat, in vivo, po, 5 mg/kg",1 h
same,bioavailability,"[16]; rat, in vivo, po, 5 mg/kg",36.7%
same,AUC(0-inf),[17]; [19],4800 ng·h/mL
same,AUC(0-t),[17]; [19],3990 ng·h/mL
same,Vd,[17]; [19],10.4 L/kg
same,clearance,[17]; [19],3.59 mL/min/kg
same,AUC(0-inf),[17]; [20],11900 ng·h/mL
same,AUC(0-t),[17]; [20],10200 ng·h/mL
same,Cmax,[17]; [20],503 ng/mL
same,Tmax,[17]; [20],7.33 h
same,bioavailability,[17]; [20],40.7%
same,half-life,"[17]; BALB/c, mouse, Iv. 1.0 mg/kg",46.3 h
same,half-life,"[17]; BALB/c, mouse, Po. 6.25 mg/kg",43.9 h
same,At 96 h lung/plasma: lung,[17]; Iv. 1.0 mg/kg,241
same,At 96 h lung/plasma: plasma,[17]; Iv. 1.0 mg/kg,12.4
same,At 96 h lung/plasma: lung,[17]; Po. 6.25 mg/kg,857
same,At 96 h lung/plasma: plasma,[17]; Po. 6.25 mg/kg,25.3
